Assay [1] has as its system HEK293. Description: Inhibition of mouse GAT4-mediated [3H]GABA uptake expressed in human HEK cells assessed as specific binding remaining at 1 mM. In kind it is cell-based.
The target of assay [2] is Sodium- and chloride-dependent GABA transporter 1 (Mus musculus) (UniProt P31648). Put plainly: Inhibition of mouse GAT1-mediated [3H]GABA uptake expressed in human HEK cells assessed as specific binding remaining at 1 mM. It counts as cell-based. Conditions: HEK293.
Assay [3] is described as follows: cells. Conditions: HEK293, 3 h. It counts as cell-based.
The target of assay [4] is Sodium- and chloride-dependent GABA transporter 1 (Mus musculus, UniProt P31648). It counts as cell-based, HEK293.
Assay [5] deals with T1, GABA transporter 3 (Mus musculus) (UniProt P31649).
T1 sequence (whole entry): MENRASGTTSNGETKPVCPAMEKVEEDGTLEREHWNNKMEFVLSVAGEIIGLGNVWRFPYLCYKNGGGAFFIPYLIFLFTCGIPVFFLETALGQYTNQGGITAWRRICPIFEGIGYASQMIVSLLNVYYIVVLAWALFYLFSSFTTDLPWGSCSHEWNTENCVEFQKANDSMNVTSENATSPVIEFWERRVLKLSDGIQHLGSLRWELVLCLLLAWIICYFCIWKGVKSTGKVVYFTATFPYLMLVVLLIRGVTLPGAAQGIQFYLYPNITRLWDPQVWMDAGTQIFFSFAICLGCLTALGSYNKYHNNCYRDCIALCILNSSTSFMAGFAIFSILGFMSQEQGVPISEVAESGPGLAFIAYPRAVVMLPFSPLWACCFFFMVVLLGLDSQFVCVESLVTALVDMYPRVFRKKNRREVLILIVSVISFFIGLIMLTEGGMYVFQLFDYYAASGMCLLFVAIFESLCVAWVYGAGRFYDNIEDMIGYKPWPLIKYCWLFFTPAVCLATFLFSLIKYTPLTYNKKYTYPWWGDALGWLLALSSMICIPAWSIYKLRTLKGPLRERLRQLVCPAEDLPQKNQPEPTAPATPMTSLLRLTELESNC
Put plainly: Inhibition of mouse GAT2-mediated [3H]GABA uptake expressed in human HEK cells assessed as specific binding remaining at 100 µM. To be noted: HEK293.

In assay [6] the target is T2, GABA transporter 4 (Mus musculus) (UniProt P31650).
T2 sequence (whole entry): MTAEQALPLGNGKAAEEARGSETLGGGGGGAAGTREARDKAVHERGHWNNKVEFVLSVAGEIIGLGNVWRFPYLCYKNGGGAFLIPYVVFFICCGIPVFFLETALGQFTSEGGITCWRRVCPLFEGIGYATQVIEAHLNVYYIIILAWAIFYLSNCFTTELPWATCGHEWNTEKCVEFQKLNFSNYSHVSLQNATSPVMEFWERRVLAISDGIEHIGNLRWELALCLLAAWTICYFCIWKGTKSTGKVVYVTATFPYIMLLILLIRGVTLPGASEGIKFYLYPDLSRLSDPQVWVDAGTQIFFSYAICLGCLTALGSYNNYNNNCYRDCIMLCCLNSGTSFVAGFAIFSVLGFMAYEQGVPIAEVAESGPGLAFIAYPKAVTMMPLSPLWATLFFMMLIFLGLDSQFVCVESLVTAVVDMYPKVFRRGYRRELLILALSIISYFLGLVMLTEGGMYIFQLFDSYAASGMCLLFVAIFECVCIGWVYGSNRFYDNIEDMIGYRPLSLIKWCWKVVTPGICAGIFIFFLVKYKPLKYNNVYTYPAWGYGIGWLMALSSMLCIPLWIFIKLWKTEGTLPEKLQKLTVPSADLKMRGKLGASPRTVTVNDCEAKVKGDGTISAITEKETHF
Description: Inhibition of mouse GAT3-mediated [3H]GABA uptake expressed in human HEK cells assessed as specific binding remaining at 100 µM. To be noted: HEK293.

Assay [7] has as its system HEK293. Put plainly: Inhibition of mouse GAT4-mediated [3H]GABA uptake expressed in human HEK cells assessed as specific binding remaining at 100 µM.
The target in assay [8] is Sodium- and chloride-dependent GABA transporter 1 (Mus musculus) (UniProt P31648). Put plainly: Inhibition of mouse GAT1-mediated [3H]GABA uptake expressed in human HEK cells assessed as specific binding remaining at 100 µM. Conditions: HEK293.

As to `O=C(O)/C=C\c1ncc[nH]1`, the results for the Activity in assay [1] and in assay [2] were 93.6% and 102%, respectively.
For `NCC(=O)O` [GLYCINE], the IC50 in assay [3] (read-out: pIC50 (converted)) was 3090 µM.
On to `O=C(O)CCCCn1ccnc1`, for which the IC50 in assay [4] (read-out: pIC50 (converted)) is 115 µM; in assay [3] (read-out: pIC50 (converted)) it was 224 µM.
As to `O=C(O)/C=C/CCc1c[nH]cn1`, the IC50 is 123 µM in assay [4] (read-out: pIC50 (converted)) and 209 µM in assay [3] (read-out: pIC50 (converted)).
As for `O=C(O)CCc1c[nH]cn1`, the IC50 in assay [3] (read-out: pIC50 (converted)) was 81.3 µM. The Activity in assay [2] turned out to be 61.7%.
For `O=C(O)CCCCCn1ccnc1`, the IC50 in assay [4] (read-out: pIC50 (converted)) is 1020 µM; in assay [3] (read-out: pIC50 (converted)) it was 234 µM.
On to `O=C(O)C1CCCc2[nH]cnc21` (stereo unspecified), for which the Activity in assay [1] came out at 81.6%; in assay [2], 59%.
Turning to `NCCCCCCC(=O)O`, the Activity in assay [1] is 84.3%.
As for `O=C(O)c1ccc2[nH]cnc2c1`, the Activity turned out to be 74.2% in assay [5], 103% in assay [6], 67.8% in assay [7] and 108% in assay [8].
For `O=C(O)CCc1ncc[nH]1`, the IC50 in assay [3] (read-out: pIC50 (converted)) is 309 µM. The Activity in assay [2] is 62.8%.
`O=C(O)CCCCc1c[nH]cn1`: the IC50 in assay [4] (read-out: pIC50 (converted)) was 417 µM. Further, in assay [1], the Activity was determined as 64.7%.
For `O=C(O)CCCc1c[nH]cn1`, the IC50 in assay [4] (read-out: pIC50 (converted)) is 417 µM; in assay [3] (read-out: pIC50 (converted)), 52.5 µM.
Regarding `Cc1ccsc1C(=CCCN(C)C1CCCc2onc(O)c21)c1sccc1C` (stereo unspecified), the IC50 in assay [4] (read-out: IC50) is 4 µM; in assay [3] (read-out: IC50) it was greater than 300 µM.
For `COc1ccc(C2(O)CCN(CCCn3c4ccccc4c4ccccc43)CC2)cc1`, in that order: 19 µM and 15 µM.
As for `COc1ccc(C(OCCN2CCC[C@H](C(=O)O)C2)(c2ccc(OC)cc2)c2ccc(OC)cc2)cc1`, the IC50 in assay [3] (read-out: IC50) is 3 µM.
Take `O=C(O)c1cccc2[nH]cnc12`: the Activity in assay [5] is 94.2%; in assay [6], 78.2%; in assay [7] it was 68.2%; in assay [8] it was 95.9%.
With `O=C(O)/C=C/c1c[nH]cn1`, the Activity in assay [1] was found to be 95.8%; in assay [2], 54.8%.
Regarding `NCCC(=O)O` [BETA-ALANINE], the values for the IC50 in assay [4] (read-out: pIC50 (converted)) and in assay [3] (read-out: pIC50 (converted)) were 2570 µM and 34.7 µM, respectively.
Consider `O=C(O)c1c[nH]cn1`, for which the Activity in assay [1] was 85.5%; in assay [2] it was 90.8%.
As for `O=C(O)CCCn1ccnc1`, the IC50 in assay [4] (read-out: pIC50 (converted)) is 117 µM; in assay [3] (read-out: pIC50 (converted)), 38 µM.
As to `O=C(O)/C=C/CCc1ncc[nH]1`, the IC50 in assay [4] (read-out: pIC50 (converted)) was 324 µM; in assay [3] (read-out: pIC50 (converted)), 309 µM.
Regarding `O=C(O)Cc1c[nH]cn1` [IMIDAZOLE ACETIC ACID], the IC50 in assay [4] (read-out: pIC50 (converted)) is 617 µM; in assay [3] (read-out: pIC50 (converted)) it was 46.8 µM.
With `O=C(O)CCCc1ncc[nH]1`, in assay [3] (read-out: pIC50 (converted)), the IC50 was 513 µM. In addition, in assay [2], the Activity was determined as 62.3%.
Consider `NCCCCCC(=O)O`, for which, in assay [1], the Activity was 65.1%.
On to `O=C(O)CCCCc1ncc[nH]1`, for which the IC50 in assay [4] (read-out: pIC50 (converted)) was 724 µM; in assay [3] (read-out: pIC50 (converted)) it was 437 µM.
Consider `O=C(O)C1CCc2[nH]cnc2C1` (stereo unspecified), for which the figures for the Activity in assay [1] and in assay [2] were 82.4% and 85%, respectively.
In the case of `O=C(O)Cc1ncc[nH]1`, the values for the Activity in assay [1] and in assay [2] were 63.4% and 75.3%, respectively.
Consider `O=C(O)CCCCCCCn1ccnc1`, for which the Activity in assay [1] is 58.6%; in assay [2] it was 68.3%.
For the molecule `O=C(O)CCCCCCn1ccnc1`, the IC50 in assay [4] (read-out: pIC50 (converted)) is 676 µM. In addition, the Activity in assay [1] is 71.1%.
For `O=C(O)Cn1ccnc1`, the IC50 in assay [3] (read-out: pIC50 (converted)) is 617 µM. In addition, the Activity in assay [2] is 73.3%.
For the molecule `NCCCCC(=O)O` [5-AMINOVALERIC ACID], in assay [3] (read-out: pIC50 (converted)), the IC50 is 501 µM.
For `O=C(O)CCn1ccnc1`, the IC50 in assay [3] (read-out: pIC50 (converted)) is 191 µM. Also, the Activity in assay [2] amounted to 72%.
In the case of `O=C(O)/C=C/c1ncc[nH]1`, the Activity in assay [1] was determined as 47.2%; in assay [2] it was 73.3%.
Turning to `O=C(O)c1ncc[nH]1`, the Activity in assay [1] was determined as 98.6%.

The values above are taken from ChEMBL document CHEMBL1773002, “Development of imidazole alkanoic acids as mGAT3 selective GABA uptake inhibitors” (Eur J Med Chem, 2011).
